Laboratory results reported in US8980891B2, “Crystalline forms of certain 3-phenyl-pyrazole derivatives as modulators of the 5-HT2A serotonin receptor useful for the treatment of disorders related thereto” (Arena Pharmaceuticals, Inc., priority 2009, dated 2015).

Assays:
JC virus = conditions: cited from earlier work
5-HT2A = 5-HT2A (Homo sapiens, UniProt P28223); conditions: cited from earlier work
[1] = slurry of the anhydrous form in water; format: physicochemical; conditions: stirred at about 26-28° C. for ~3 days
Protocol: A slurry of anhydrous 4-(2-(4-(3-methoxybenzamido)-2-(1-methyl-1H-pyrazol-5-yl)phenoxy)ethyl)morpholin-4-ium chloride in water was stirred at ambient/stir plate temperature (about 26-28° C.) for ˜3 days.

glaucoma patients = conditions: cited from earlier work
heatstroke = conditions: in vivo; cited from earlier work
[2] = system: spontaneously hypertensive rats; conditions: cited from earlier work
diabetic nephropathy = conditions: trial of 24 months of treatment; cited from earlier work
thermal induced pain = conditions: rats, intraperitoneal administration; cited from earlier work
inflammatory pain = conditions: rats, intrathecal or intraperitoneal administration; cited from earlier work
[3] = system: lower back pain, leg pain and numbness associated with sciatica; conditions: humans; cited from earlier work
[4] = system: DOCA-salt induced hypertension; conditions: rats; cited from earlier work

Sequence of 5-HT2A (P28223 whole entry, species assumed): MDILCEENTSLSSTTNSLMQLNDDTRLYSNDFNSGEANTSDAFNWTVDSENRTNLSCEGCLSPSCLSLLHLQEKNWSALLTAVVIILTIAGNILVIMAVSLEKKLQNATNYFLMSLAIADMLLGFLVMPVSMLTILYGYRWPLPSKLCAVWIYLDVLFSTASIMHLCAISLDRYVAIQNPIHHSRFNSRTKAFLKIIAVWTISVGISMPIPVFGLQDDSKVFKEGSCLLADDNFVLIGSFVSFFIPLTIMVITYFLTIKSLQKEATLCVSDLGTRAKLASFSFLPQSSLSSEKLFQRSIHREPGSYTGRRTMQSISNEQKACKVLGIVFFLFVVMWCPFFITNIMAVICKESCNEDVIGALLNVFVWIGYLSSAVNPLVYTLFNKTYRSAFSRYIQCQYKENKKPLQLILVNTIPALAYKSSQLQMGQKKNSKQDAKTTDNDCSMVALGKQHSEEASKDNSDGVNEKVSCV

Cc1nc2sccn2c(=O)c1CCN1CCC(=C(c2ccc(F)cc2)c2ccc(F)cc2)CC1 [ritanserin]
JC virus infection of human glial cells (JC virus): inhibited | activity at 5-HT2A (5-HT2A): inverse agonist activity

COc1cccc(C(=O)Nc2ccc(OCCN3CCOCC3)c(-c3ccnn3C)c2)c1.Cl [Example 1, 4-(2-(4-(3-Methoxybenzamido)-2-(1-methyl-1H-pyrazol-5-yl)phenoxy)ethyl)morpholin-4-ium chloride]
solid form recovered after slurry in water [1]: anhydrous form was recovered

O=C(c1ccc(F)cc1)C1CCN(CCn2c(=O)[nH]c3ccccc3c2=O)CC1 [ketanserin]
IOP (glaucoma patients): significantly lower | JC virus infection of human glial cells (JC virus): inhibited | activity at 5-HT2A (5-HT2A): inverse agonist activity | protection against circulatory shocks, intracranial hypertension, and cerebral ischemia during heatstroke (heatstroke): protect | blood pressure [2]: stabilize

COc1cccc(CCc2ccccc2OCC(CN(C)C)OC(=O)CCC(=O)O)c1 (centres unmarked) [sarpogrelate]
urinary albumin excretion level (diabetic nephropathy): significantly reduced | IOP (glaucoma patients): significantly lower | analgesic effect on thermal induced pain (thermal induced pain): significant analgesic effect | analgesic effect on inflammatory pain (inflammatory pain): significant analgesic effect | treatment for lower back pain, leg pain and numbness associated with sciatica brought on by lumbar disc herniation [3]: effective treatment

CN1CCN2c3ccccc3Cc3ccccc3C2C1 (centres unmarked) [Mainserin]
DOCA-salt induced hypertension [4]: prevent
